ChEMBL document CHEMBL1201862, “PubChem BioAssay data set” (2004)
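Following 48 hours of exposure in 96-well plates, responses at five concentrations were used to interpolate endpoints linearly. GI50: concentration for 50% inhibition of growth.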 The source made the active and inactive calls. Rule as the data show it: active = GI50 up to about 1.1 µM and inactive = higher.

Assays:
Assay in all cases: NCI tumour cell line growth inhibition, 48 h
[1] = system: SN12C
[2] = system: Malme-3M
[3] = system: LOX IMVI
[4] = system: NCI-H226
[5] = system: A498
[6] = system: SW-620
[7] = system: A549
[8] = system: RXF 393
[9] = system: NCI-H23
[10] = system: HOP-62
[11] = system: NCI/ADR-RES
[12] = system: MCF7
[13] = system: COLO 205
[14] = system: MDA-MB-231
[15] = system: NCI-H460
[16] = system: SK-OV-3
[17] = system: OVCAR-5
[18] = system: 786-0
[19] = system: SK-MEL-5
[20] = system: TK-10
[21] = system: SNB-75
[22] = system: RPMI-8226
[23] = system: OVCAR-3
[24] = system: SK-MEL-2
[25] = system: PC-3
[26] = system: BT-549
[27] = system: KM12
[28] = system: SF-268
[29] = system: SK-MEL-28
[30] = system: SF-295
[31] = system: HCT-15
[32] = system: SNB-19
[33] = system: OVCAR-4
[34] = system: UO-31
[35] = system: CAKI-1
[36] = system: SF-539
[37] = system: HCT-116
[38] = system: MDA-MB-435
[39] = system: OVCAR-8
[40] = system: U-251
[41] = system: ACHN
[42] = system: M14
[43] = system: CCRF-CEM
[44] = system: MDA-N
[45] = system: EKVX
[46] = system: T47D
[47] = system: UACC-257
[48] = system: NCI-H522
[49] = system: HCC 2998
[50] = system: IGROV-1
[51] = system: HOP-92
[52] = system: K562
[53] = system: DU-145
[54] = system: HT-29
[55] = system: MOLT-4
[56] = system: SR
[57] = system: HL-60
[58] = system: UACC-62

`Cc1cc2[nH]c3c(C#N)c(-c4ccccc4)c(/C=N/c4cccc(C(F)(F)F)c4)c(=O)n3c2cc1C` was tested, and the GI50 [1] was 89.9 µM (inactive), the GI50 [2] was > 100 µM (inactive) and the GI50 [3] was 97.9 µM (inactive). For the same compound, the GI50 [4] was > 100 µM (inactive), the GI50 [5] was > 100 µM (inactive) and the GI50 [6] was 59.7 µM (inactive). The GI50 [7] was > 100 µM (inactive), the GI50 [8] was 37 µM (inactive) and the GI50 [9] was > 100 µM (inactive). For the same compound, the GI50 [10] was 22.6 µM (inactive), the GI50 [11] was > 100 µM (inactive) and the GI50 [12] was 79.8 µM (inactive). For the same compound, the GI50 [13] was > 100 µM (inactive), the GI50 [14] was > 100 µM (inactive) and the GI50 [15] was > 100 µM (inactive). The GI50 [16] was 99.5 µM (inactive), the GI50 [17] was > 100 µM (inactive) and the GI50 [18] was 94 µM (inactive). For the same compound, the GI50 [19] was > 100 µM (inactive), the GI50 [20] was > 100 µM (inactive) and the GI50 [21] was > 100 µM (inactive). The GI50 [22] was 70 µM (inactive), the GI50 [23] was 16.3 µM (inactive) and the GI50 [24] was > 100 µM (inactive). For the same compound, the GI50 [25] was > 100 µM (inactive), the GI50 [26] was 91.6 µM (inactive) and the GI50 [27] was 38.4 µM (inactive). For the same compound, the GI50 [28] was 64.7 µM (inactive), the GI50 [29] was > 100 µM (inactive) and the GI50 [30] was 64.3 µM (inactive). For the same compound, the GI50 [31] was 74.1 µM, the GI50 [32] was > 100 µM (inactive) and the GI50 [33] was 99.5 µM (inactive). For the same compound, the GI50 [34] was > 100 µM (inactive), the GI50 [35] was 89.9 µM (inactive) and the GI50 [36] was 63.4 µM (inactive). The GI50 [37] was 40.8 µM (inactive), the GI50 [38] was > 100 µM (inactive) and the GI50 [39] was > 100 µM (inactive). For the same compound, the GI50 [40] was > 100 µM (inactive), the GI50 [41] was 83.9 µM (inactive) and the GI50 [42] was > 100 µM (inactive). The GI50 [43] was 72.8 µM (inactive), the GI50 [44] was 79.3 µM (inactive) and the GI50 [45] was > 100 µM (inactive). The GI50 [46] was 45 µM (inactive), the GI50 [47] was > 100 µM (inactive) and the GI50 [48] was 39.4 µM (inactive). The GI50 [49] was > 100 µM (inactive).
`O=c1cc(N2CCCC2)[nH]c(=O)n1Cc1ccccc1` was tested, and the GI50 [1] was > 100 µM (inactive), the GI50 [50] was > 100 µM (inactive) and the GI50 [2] was > 100 µM (inactive). For the same compound, the GI50 [3] was > 100 µM (inactive), the GI50 [51] was > 100 µM (inactive) and the GI50 [4] was 55.3 µM (inactive). For the same compound, the GI50 [6] was > 100 µM (inactive), the GI50 [7] was > 100 µM (inactive) and the GI50 [52] was > 100 µM (inactive). For the same compound, the GI50 [9] was > 100 µM (inactive), the GI50 [10] was > 100 µM (inactive) and the GI50 [11] was > 100 µM (inactive). For the same compound, the GI50 [12] was > 100 µM (inactive), the GI50 [13] was > 100 µM (inactive) and the GI50 [14] was > 100 µM (inactive). For the same compound, the GI50 [15] was > 100 µM (inactive), the GI50 [17] was > 100 µM (inactive) and the GI50 [18] was > 100 µM (inactive). The GI50 [19] was > 100 µM (inactive), the GI50 [20] was > 100 µM (inactive) and the GI50 [21] was > 100 µM (inactive). For the same compound, the GI50 [22] was > 100 µM (inactive), the GI50 [24] was > 100 µM (inactive) and the GI50 [25] was > 100 µM (inactive). For the same compound, the GI50 [26] was > 100 µM (inactive), the GI50 [27] was > 100 µM (inactive) and the GI50 [29] was > 100 µM (inactive). For the same compound, the GI50 [53] was > 100 µM (inactive), the GI50 [30] was > 100 µM (inactive) and the GI50 [31] was greater than 100 µM. For the same compound, the GI50 [32] was > 100 µM (inactive), the GI50 [33] was > 100 µM (inactive) and the GI50 [35] was > 100 µM (inactive). The GI50 [36] was > 100 µM (inactive), the GI50 [37] was > 100 µM (inactive) and the GI50 [38] was > 100 µM (inactive). The GI50 [39] was > 100 µM (inactive), the GI50 [40] was > 100 µM (inactive) and the GI50 [41] was > 100 µM (inactive). For the same compound, the GI50 [42] was > 100 µM (inactive), the GI50 [43] was > 100 µM (inactive) and the GI50 [45] was > 100 µM (inactive). The GI50 [54] was > 100 µM (inactive), the GI50 [47] was > 100 µM (inactive) and the GI50 [55] was > 100 µM (inactive). For the same compound, the GI50 [48] was > 100 µM (inactive), the GI50 [49] was 8.55 µM (inactive) and the GI50 [56] was > 100 µM (inactive). The GI50 [57] was > 100 µM (inactive).
In the case of `NN/C(=N\S(=O)(=O)c1cccc2nsnc12)Nc1ccc(Cl)cc1`, the GI50 [1] is reported as > 100 µM (inactive), the GI50 [50] is reported as > 100 µM (inactive) and the GI50 [3] is reported as > 100 µM (inactive). The GI50 [51] was > 100 µM (inactive), the GI50 [4] was > 100 µM (inactive) and the GI50 [5] was > 100 µM (inactive). For the same compound, the GI50 [6] was > 100 µM (inactive), the GI50 [7] was > 100 µM (inactive) and the GI50 [8] was > 100 µM (inactive). The GI50 [52] was > 100 µM (inactive), the GI50 [9] was > 100 µM (inactive) and the GI50 [10] was > 100 µM (inactive). The GI50 [11] was > 100 µM (inactive), the GI50 [12] was > 100 µM (inactive) and the GI50 [13] was > 100 µM (inactive). The GI50 [14] was > 100 µM (inactive), the GI50 [15] was > 100 µM (inactive) and the GI50 [16] was > 100 µM (inactive). The GI50 [17] was > 100 µM (inactive), the GI50 [18] was > 100 µM (inactive) and the GI50 [19] was > 100 µM (inactive). For the same compound, the GI50 [20] was > 100 µM (inactive), the GI50 [21] was 65.9 µM (inactive) and the GI50 [22] was > 100 µM (inactive). For the same compound, the GI50 [23] was > 100 µM (inactive), the GI50 [24] was > 100 µM (inactive) and the GI50 [25] was > 100 µM (inactive). For the same compound, the GI50 [26] was > 100 µM (inactive), the GI50 [27] was > 100 µM (inactive) and the GI50 [28] was 26.2 µM (inactive). The GI50 [29] was > 100 µM (inactive), the GI50 [53] was > 100 µM (inactive) and the GI50 [30] was > 100 µM (inactive). For the same compound, the GI50 [31] was greater than 100 µM, the GI50 [32] was > 100 µM (inactive) and the GI50 [33] was > 100 µM (inactive). The GI50 [34] was > 100 µM (inactive), the GI50 [35] was > 100 µM (inactive) and the GI50 [36] was > 100 µM (inactive). For the same compound, the GI50 [37] was > 100 µM (inactive), the GI50 [39] was > 100 µM (inactive) and the GI50 [40] was > 100 µM (inactive). For the same compound, the GI50 [41] was > 100 µM (inactive), the GI50 [42] was > 100 µM (inactive) and the GI50 [58] was > 100 µM (inactive). For the same compound, the GI50 [43] was > 100 µM (inactive), the GI50 [44] was > 100 µM (inactive) and the GI50 [45] was > 100 µM (inactive). The GI50 [46] was 48.6 µM (inactive), the GI50 [54] was > 100 µM (inactive) and the GI50 [47] was > 100 µM (inactive). For the same compound, the GI50 [55] was 61 µM (inactive), the GI50 [56] was > 100 µM (inactive) and the GI50 [57] was 9.98 µM (inactive).
